Measured values: patent publication US9168243B2, “Pharmaceutical compositions comprising 8-substituted dibenzylbutyrolactone lignans” (priority 2010, dated 2015)

Columns and labels:
[1] = system: LNCaP cells; experiment: Caspase-3 activation by flow cytometry, TRAIL with or without NTG; assay type: cell-based; settings: for percentage of cells with activated caspase-3 (maximum): combination of 40 μM NTG and TRAIL, 20 h
Description: Flow cytometric analysis of apoptosis with HTS platform was performed on cells that were plated on a 96-well plate as triplicate samples. After 24 hours in androgen-deprived conditions, the cells were pretreated with 40 μM lignans or lignan derivatives for 1 hour prior to addition of 10 ng/ml izTRAIL. Twenty hours later the plate was centrifuged with a culture plate rotor (1000 rpm, 3 minutes). For analysis of nuclear fragmentation, propidium iodide (PI) buffer (40 mM Na-citrate, 0.3% Triton X-100, 50 μg/ml PI; Sigma) was added to the wells. After 10 minutes incubation at room temperature, the plate was analyzed with LSRII flow cytometer equipped with HTS platform (PE-A channel). The fraction of sub-G0/G1 events (nuclear fragmentation) was gated as a measure of apoptotic cell death. For detection of mitochondrial depolarization, the cells were detached by trypsinization of the cells and incubated in 20 nM tetramethylrhodamine (TMRM; Invitrogen) in warm culture medium for 10 minutes before analysis. The plate was analyzed with LSRII flow cytometer equipped with HTS platform (FSC, PE-A channel). The cells with decreased TMRM incorporation were considered to have undergone mitochondrial membrane depolarization. Activated caspase-3 in cells was labeled with phycerythrin (PE)-conjugated antibody according to manufacturer's protocol (BD Pharmingen) and analyzed by FacsCalibur flow cytometer (FL-2, FSC).
As NTG was identified as the most efficient TRAIL-sensitizing lignan, we analyzed the ability of NTG to affect the efficacy of different TRAIL concentrations in triggering of caspase-3 activation (FIG. 2A). The TRAIL resistant LNCaP cells were cultured in androgen-supplied and androgen-deprived conditions to simulate the effects of androgen-deprivation therapy, and treated for 20 h with TRAIL alone or with the combination of 40 μM NTG and TRAIL. The percentage of cells with activated caspase-3 increased from maximum of 15% to 60% for androgen-deprived, and from 13% to 30% for androgen-supplied cells (Mean±SEM; n≧3) (FIG. 2A).

[2] = system: non-malignant prostate epithelial RWPE-1 cells; experiment: Caspase-3 activation by flow cytometry in a non-malignant prostate cell line; assay type: cell-based; settings: 40 μM NTG 1 h before izTRAIL in different concentrations, 20 h
Description: The LNCaP prostate cancer cells (clone FGC; EACC) were cultured in RPMI-1640 medium (Sigma-Aldrich) supplemented with 10% fetal calf serum (BioClear), 2 mM L-glutamin, 100 U/ml penicillin, 100 μg/ml streptomycin and 1 mM sodium pyruvate (Sigma-Aldrich). One day prior to treatment medium was changed to phenol red free RPMI-1640 (Gibco) with or without 1 nM synthetic androgen (Mibolerone). This medium was supplemented with 10% charcoal/dextran treated fetal bovine serum (Hyclone), L-glutamine, penicillin and streptomycin. SV40 transformed prostate epithelial RWPE-1 cell line was kindly provided by Professor Olli Kallioniemi. […]
Flow cytometric analysis of apoptosis with HTS platform was performed on cells that were plated on a 96-well plate as triplicate samples. […] After 10 minutes incubation at room temperature, the plate was analyzed with LSRII flow cytometer equipped with HTS platform (PE-A channel). […] The plate was analyzed with LSRII flow cytometer equipped with HTS platform (FSC, PE-A channel). […] Activated caspase-3 in cells was labeled with phycerythrin (PE)-conjugated antibody according to manufacturer's protocol (BD Pharmingen) and analyzed by FacsCalibur flow cytometer (FL-2, FSC). […]

[3] = system: LNCaP cells; experiment: Apoptosis after prolonged incubation with NTG alone; assay type: cell-based; settings: 0-100 μM NTG, 24-72 h
[4] = system: EGF receptor (EGFR); experiment: EGF-induced EGFR tyrosine 1068 phosphorylation, Western blot; assay type: cell-based; settings: LNCaP; pretreatment with 100 μM NTG; 20 ng/ml EGF, 5 minutes
Description: The cells were treated with 0-100 μM lignans or solvent control for indicated times. Human recombinant isoleucin-zipper TRAIL (izTRAIL; kindly provided by Professor Henning Walczak) was used at 0-1 μg/ml with an incubation time of 20 hours. Prior to 10 minutes treatment with 10 nM IGF-1 (Millipore) or 10 nM insulin (Sigma) the cells were serum-starved (1% FCS) overnight. EGFR stimulation was performed on serum-starved cells with 20 ng/ml EGF for 5 minutes (a kind gift from Professor Klaus Elenius laboratory).
Whole cell lysates were prepared by lysing floating and attached cells in Laemmli sample buffer and boiling the samples for 10 minutes. Proteins were separated by SDS-PAGE and transferred on PVDF membrane (Millipore). Western blotting was performed using antibodies against Akt, phospho-Akt (Ser473), GSK-3β, phospho-GSK-3β (Ser9) and phospho-EGF receptor Tyr(1068) (Cell Signalling Technology), Actin (clone AC-40; Sigma-Aldrich), PI3K p85α (clone 4/PI3-Kinase; BD Pharmingen), EGF receptor, Insulin receptor β and IGF-I receptor β (Santa Cruz Biotechnology), and Phospho-tyrosine (clone 4G10; Millipore). HRP-conjugated secondary antibodies were from Southern Biotechnology Associates, Promega, and Amersham Biosciences. The results were visualized using the ECL method (Amersham Biosciences) on x-ray film. […]

[5] = system: LNCaP cells; experiment: Clonogenic assay; assay type: cell-based; settings: 11 days
Description: Five hundred LNCaP cells were plated in 1 ml of culture medium and let to adhere prior to addition of the indicated treatments. After 11 days of incubation, cell colonies were fixed with glutaraldehyde (6.0% v/v), stained with crystal violet (0.5% w/v) and imaged using a digital camera.
To investigate the effects of NTG alone and in combination with TRAIL on colony formation ability, the LNCaP cells were plated in low confluency and treated for 11 days.

[6] = system: DMBA-induced mammary tumors; settings: cited from earlier work

COc1cc(CC2COC(=O)C2(O)Cc2ccc(O)c(OC)c2)ccc1O (centres unmarked) [NTG, Nortrachelogenin]
sensitizing effect when medium change directly precedes TRAIL receptor activation ([1]; 1 hour pretreatment with 40 μM NTG, culture medium replaced before TRAIL, androgen-deprived and androgen-supplied): completely abolished
effect of increasing the NTG dose on sensitization to TRAIL ([1]; NTG 40 μM to 100 μM, 10 ng/ml TRAIL): did not induce further sensitization
percentage of cells with activated caspase-3 (maximum) ([1]; androgen-deprived LNCaP): 60%
percentage of cells with activated caspase-3 (maximum) ([1]; androgen-supplied LNCaP): 30%
sensitization of non-malignant cells to TRAIL (caspase-3 activation) [2]: did not display any sensitization to TRAIL
induction of apoptosis by NTG alone [3]: did not induce apoptosis
EGF-induced tyrosine phosphorylation of EGFR [4]: attenuated the EGF-induced tyrosine phosphorylation of EGFR
colony formation ability, single agent ([5]; 10 ng/ml TRAIL or 40 μM NTG alone): clearly inhibited the growth of the plated cells
colony formation ability, NTG and TRAIL in combination ([5]; 40 μM NTG and 10 ng/ml TRAIL): significant death of the cells that were seeded
growth of DMBA-induced mammary tumors ([6]; during promotion and early progression): did not inhibit the growth of DMBA-induced mammary tumors
endocrine-modulatory effects ([6]; long-term experiments): weak endocrine-modulatory effects
